Assay results from EP1044015B1, “FORMULATIONS FOR AMYLIN AGONIST PEPTIDES WITH INSULIN” (AMYLIN PHARMACEUTICALS, INC., priority 1998, dated 2008).

Test: Adsorption onto glass container
Type: physicochemical
Conditions: liquid form
Description: However, with regard to amylin agonists or amylins which do have such a tendency, a surfactant should be used in their formulation which formulations should then be lyophilized. Surfactants frequently cause denaturation of protein, both of hydrophobic disruption and by salt bridge separation. Relatively low concentrations of surfactant exert a potent denaturing activity, because of the strong interactions between surfactant moieties and the reactive sites on proteins. However, judicious use of this interaction can stabilize proteins against interfacial or surface denaturation. Surfactants which could further stabilize the peptide may optionally be present in the range of about 0.001 to 0.3% (w/v) of the total formulation and include polysorbate 80 (i.e., polyoxyethylene(20) sorbitan monooleate), CHAPS° (i.e., 3-[(3-cholamidopropyl) dimethylammonio] 1-propanesulfonate), Brij° (e.g., Brij 35, which is (polyoxyethylene (23) lauryl ether), poloxamer, or another non-ionic surfactant.

With ^25,28,29Pro-h- amylin [Pramlintide] the “tendency to adsorb onto the glass” value was “does not have a tendency to adsorb onto the glass”.
